Counter-ions that a name gives are not always drawn.
Assays:
aldose reductase = assay: inhibition of aldose reductase enzyme activity (partially purified enzyme from human placenta); type: biochemical; settings: percent inhibition of enzyme activity
Method: The compounds of Example 2 and 4 were tested for their ability to reduce or inhibit aldose reductase enzyme activity, following the procedure described in U.S. Pat. No. 3,821,383 and based on the procedure of Hayman et. al., Journal of Biological Chemistry, 240 877 (1965). The substrate employed was partially purified aldose reductase enzyme obtained from human placenta. The results obtained with each compound at a concentration of 10^-6 M are expressed as percent inhibition of enzyme activity.

[1] = system: sorbitol accumulation in the sciatic nerve; assay: inhibition of sorbitol accumulation in the sciatic nerve of streptozotocinized (diabetic) rats; type: in vivo; settings: oral 0.25 mg/kg at 4, 8 and 24 hours following streptozotocin; sorbitol in sciatic nerves measured 27 hours after induction of diabetes; versus untreated animal
Method: The compounds of Example 2 and 4 were tested for their ability to reduce or inhibit sorbitol accumulation in the sciatic nerve of streptozotocinized (i.e. diabetic) rats by the procedure essentially described in U.S. Pat. No. 3,821,383. In the present study, the amount of sorbitol accumulation in the sciatic nerves was measured 27 hours after induction of diabetes. The compounds were administered orally at the dose levels of 0.25 mg/kg at 4, 8 and 24 hours following the administration of streptozotocin. The results obtained in this manner are presented below in terms of percent inhibition (%) afforded by the test compound as compared to the case where no compound was administered (i.e. the untreated animal, where sorbitol levels normally rise from approximately […]. tissue to as high as 400 mM/g. tissue in the 27 hour test period): […]

Nc1cc(Cl)cc2c1OCCC21NC(=O)NC1=O (stereo not shown) [Example 2, 8-Amino-6-chloro-spiro[4H-2,3-dihydro-1-benzopyran-4,4'-imidazolidine]-2',5'-dione hydrochloride]
% Inhibition at 10^-6 M (aldose reductase): 58%
% Inhibition at 0.25 mg/kg [1]: 17%

Nc1cc(F)cc2c1OCC[C@]21NC(=O)NC1=O [Example 4, 4S-8-amino-6-fluoro-spiro[4H-2,3-dihydro-1-benzopyran-4,4'-imidazolidine]-2',5'-dione hydrochloride]
% Inhibition at 10^-6 M (aldose reductase): 40%
% Inhibition at 0.25 mg/kg [1]: 40%

From US4248882A, “Treating diabetes-associated complications with hydantoin amines” (Pfizer Inc., priority 1980, dated 1981)
